Assay results: ChEMBL document CHEMBL3585339, “Synthesis, biological activities and pharmacokinetic properties of new fluorinated derivatives of selective PDE4D inhibitors” (Bioorg Med Chem, 2015)
Active and inactive are the calls of the source. The calls are words filed in the database; no cut-off is given here.

Assays:
[1] = Cytotoxicity against human HTLA-230 cells at 100 uM after 24 hrs by lactate dehydrogenase release assay (reference value: 0.67 +/- 0.24%); format: cell-based; conditions: htla-230, 24 h
[2] = molecular target: T1, 3',5'-cyclic-AMP phosphodiesterase 4D (Homo sapiens, UniProt Q08499); experiment: Inhibition of human recombinant PDE4D3 expressed in baculoviral system using cAMP as substrate by fluorescence polarization assay
[3] = molecular target: 3',5'-cyclic-AMP phosphodiesterase 4B (Homo sapiens) (UniProt Q07343); experiment: Inhibition of human recombinant PDE4B2 expressed in baculoviral system using cAMP as substrate at 10 uM by fluorescence polarization assay relative to control
[4] = molecular target: 3',5'-cyclic-AMP phosphodiesterase 4A (Homo sapiens) (UniProt P27815); experiment: Inhibition of human recombinant PDE4A4 expressed in baculoviral system using cAMP as substrate at 10 uM by fluorescence polarization assay relative to control
[5] = molecular target: T1, 3',5'-cyclic-AMP phosphodiesterase 4D; experiment: Inhibition of human recombinant PDE4D3 expressed in baculoviral system using cAMP as substrate at 10 uM by fluorescence polarization assay relative to control
[6] = Genotoxicity in human HTLA-230 cells assessed as gamma-H2AX production at 100 uM after 24 hrs by Western blot analysis; format: toxicity, cell-based; conditions: htla-230, 24 h
[7] = Cmax in BALB/c mouse brain at 10 mg/kg, sc by LC-MS/MS analysis; format: ADME, organism-based; set-up: dose 10 mg/kg, route subcutaneous
Mus musculus [8] = experiment: Toxicity in mouse assessed as sedative effect by measuring reduction of total distance traveled at 10 mg/kg, po measured over 60 mins by open-field test; format: organism-based; conditions: in vivo, 1 h
[9] = Effect on cAMP level in human HTLA-230 cells at 100 uM after 10 mins by enzyme immunoassay; format: ADME, cell-based; conditions: htla-230, 10 min
[10] = Ratio of AUC (0 to t) in BALB/c mouse brain to AUC (0 to t) in BALB/c mouse plasma at 10 mg/kg, sc by LC-MS/MS analysis; format: ADME, organism-based; conditions: read-out: Ratio AUC
[11] = Drug uptake in BALB/c mouse brain at 10 mg/kg, sc measured at 1 hr by LC-MS/MS analysis; format: ADME, organism-based; conditions: read-out: Drug uptake
[12] = Plasma concentration in BALB/c mouse at 10 mg/kg, sc measured at 3 hrs by LC-MS/MS analysis; format: ADME, organism-based
[13] = Plasma concentration in BALB/c mouse at 10 mg/kg, sc measured at 0.67 hrs by LC-MS/MS analysis; format: ADME, organism-based
Brain = experiment: AUC (0 to t) in BALB/c mouse brain at 10 mg/kg, sc by LC-MS/MS analysis; format: ADME, organism-based; conditions: in vivo
[14] = Cmax in BALB/c mouse plasma at 10 mg/kg, sc by LC-MS/MS analysis; format: ADME, organism-based; set-up: dose 10 mg/kg, route subcutaneous
[15] = Tmax in BALB/c mouse plasma at 10 mg/kg, sc by LC-MS/MS analysis; format: ADME, organism-based
[16] = Drug uptake in BALB/c mouse brain at 10 mg/kg, sc measured at 5 hrs by LC-MS/MS analysis; format: ADME, organism-based; conditions: read-out: Drug uptake
[17] = Tmax in BALB/c mouse brain at 10 mg/kg, sc by LC-MS/MS analysis; format: ADME, organism-based
[18] = Drug uptake in BALB/c mouse brain at 10 mg/kg, sc measured at 0.17 hrs by LC-MS/MS analysis; format: ADME, organism-based; conditions: read-out: Drug uptake
[19] = Plasma concentration in BALB/c mouse at 10 mg/kg, sc measured at 2 hrs by LC-MS/MS analysis; format: ADME, organism-based
[20] = molecular target: T1, 3',5'-cyclic-AMP phosphodiesterase 4D; experiment: Inhibition of PDE4D in human HTLA-230 cells assessed as increase in forskolin-induced cAMP accumulation at 100 uM pretreated for 10 mins followed by forskolin induction measured after 20 mins by enzyme immunoassay; format: cell-based
[21] = Drug uptake in BALB/c mouse brain at 10 mg/kg, sc measured at 0.67 hrs by LC-MS/MS analysis; format: ADME, organism-based; conditions: read-out: Drug uptake
[22] = Drug uptake in BALB/c mouse brain at 10 mg/kg, sc measured at 3 hrs by LC-MS/MS analysis; format: ADME, organism-based; conditions: read-out: Drug uptake
[23] = Plasma concentration in BALB/c mouse at 10 mg/kg, sc measured at 0.33 hrs by LC-MS/MS analysis; format: ADME, organism-based
Mus musculus [24] = experiment: Toxicity in mouse assessed as sedative effect by measuring prolongation of immobility time at 10 mg/kg, po measured over 60 mins by open-field test; format: organism-based; conditions: in vivo, 1 h
[25] = AUC (0 to t) in BALB/c mouse plasma at 10 mg/kg, sc by LC-MS/MS analysis; format: ADME, organism-based
[26] = Plasma concentration in BALB/c mouse at 10 mg/kg, sc measured at 0.17 hrs by LC-MS/MS analysis; format: ADME, organism-based
[27] = Drug uptake in BALB/c mouse brain at 10 mg/kg, sc measured at 0.33 hrs by LC-MS/MS analysis; format: ADME, organism-based; conditions: read-out: Drug uptake
[28] = Drug uptake in BALB/c mouse brain at 10 mg/kg, sc measured at 2 hrs by LC-MS/MS analysis; format: ADME, organism-based; conditions: read-out: Drug uptake
[29] = Plasma concentration in BALB/c mouse at 10 mg/kg, sc measured at 1 hr by LC-MS/MS analysis; format: ADME, organism-based
[30] = Elimination half life in BALB/c mouse plasma at 10 mg/kg, sc by LC-MS/MS analysis; format: ADME, organism-based; conditions: read-out: beta t1/2 (converted)
[31] = Plasma concentration in BALB/c mouse at 10 mg/kg, sc measured at 5 hrs by LC-MS/MS analysis; format: ADME, organism-based
[32] = Elimination half life in BALB/c mouse brain at 10 mg/kg, sc by LC-MS/MS analysis; format: ADME, organism-based; conditions: read-out: beta t1/2 (converted)
[33] = Cytotoxicity against human HTLA-230 cells at 10 uM after 24 hrs by lactate dehydrogenase release assay (reference value: 0.67 +/- 0.24%); format: cell-based; conditions: htla-230, 24 h

Sequence of 3',5'-cyclic-AMP phosphodiesterase 4B (Homo sapiens) (Q07343 whole entry): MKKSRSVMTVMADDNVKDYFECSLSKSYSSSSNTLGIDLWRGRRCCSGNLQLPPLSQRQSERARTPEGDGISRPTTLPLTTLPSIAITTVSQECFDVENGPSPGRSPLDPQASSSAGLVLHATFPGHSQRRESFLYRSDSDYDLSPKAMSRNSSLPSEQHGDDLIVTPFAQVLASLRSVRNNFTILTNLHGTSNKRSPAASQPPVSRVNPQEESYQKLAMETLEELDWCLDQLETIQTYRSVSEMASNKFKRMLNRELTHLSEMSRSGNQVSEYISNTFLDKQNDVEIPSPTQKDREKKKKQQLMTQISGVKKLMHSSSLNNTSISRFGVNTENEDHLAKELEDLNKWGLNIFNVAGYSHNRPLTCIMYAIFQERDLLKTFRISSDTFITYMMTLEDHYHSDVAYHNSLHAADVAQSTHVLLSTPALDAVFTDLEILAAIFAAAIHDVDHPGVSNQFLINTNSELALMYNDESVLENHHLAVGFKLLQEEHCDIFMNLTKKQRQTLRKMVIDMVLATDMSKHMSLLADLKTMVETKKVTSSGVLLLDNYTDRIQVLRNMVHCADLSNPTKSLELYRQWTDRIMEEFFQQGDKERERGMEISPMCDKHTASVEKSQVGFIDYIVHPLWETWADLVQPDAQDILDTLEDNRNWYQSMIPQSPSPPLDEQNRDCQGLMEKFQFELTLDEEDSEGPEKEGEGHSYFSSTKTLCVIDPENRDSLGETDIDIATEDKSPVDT
T1 sequence (Q08499 whole entry): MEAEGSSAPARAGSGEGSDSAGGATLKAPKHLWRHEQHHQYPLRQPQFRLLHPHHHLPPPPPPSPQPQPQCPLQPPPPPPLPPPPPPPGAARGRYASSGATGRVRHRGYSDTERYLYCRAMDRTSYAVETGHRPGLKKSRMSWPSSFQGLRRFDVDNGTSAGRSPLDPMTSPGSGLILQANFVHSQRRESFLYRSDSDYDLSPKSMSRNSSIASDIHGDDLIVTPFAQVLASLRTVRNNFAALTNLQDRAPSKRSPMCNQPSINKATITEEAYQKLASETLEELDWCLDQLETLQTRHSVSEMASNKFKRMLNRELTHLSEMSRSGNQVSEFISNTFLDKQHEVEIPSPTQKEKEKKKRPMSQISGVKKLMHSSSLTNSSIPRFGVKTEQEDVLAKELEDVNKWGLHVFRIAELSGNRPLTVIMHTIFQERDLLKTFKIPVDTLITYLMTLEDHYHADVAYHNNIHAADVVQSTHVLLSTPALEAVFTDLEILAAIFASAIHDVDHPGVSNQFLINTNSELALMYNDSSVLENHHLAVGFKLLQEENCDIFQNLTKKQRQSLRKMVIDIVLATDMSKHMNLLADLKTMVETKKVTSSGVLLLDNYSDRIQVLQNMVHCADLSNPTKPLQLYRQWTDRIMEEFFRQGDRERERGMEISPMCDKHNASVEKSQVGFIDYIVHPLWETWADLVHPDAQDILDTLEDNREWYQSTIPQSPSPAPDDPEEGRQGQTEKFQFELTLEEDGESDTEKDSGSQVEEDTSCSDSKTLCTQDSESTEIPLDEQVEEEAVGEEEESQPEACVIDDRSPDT
Sequence of 3',5'-cyclic-AMP phosphodiesterase 4A (Homo sapiens) (P27815 whole entry): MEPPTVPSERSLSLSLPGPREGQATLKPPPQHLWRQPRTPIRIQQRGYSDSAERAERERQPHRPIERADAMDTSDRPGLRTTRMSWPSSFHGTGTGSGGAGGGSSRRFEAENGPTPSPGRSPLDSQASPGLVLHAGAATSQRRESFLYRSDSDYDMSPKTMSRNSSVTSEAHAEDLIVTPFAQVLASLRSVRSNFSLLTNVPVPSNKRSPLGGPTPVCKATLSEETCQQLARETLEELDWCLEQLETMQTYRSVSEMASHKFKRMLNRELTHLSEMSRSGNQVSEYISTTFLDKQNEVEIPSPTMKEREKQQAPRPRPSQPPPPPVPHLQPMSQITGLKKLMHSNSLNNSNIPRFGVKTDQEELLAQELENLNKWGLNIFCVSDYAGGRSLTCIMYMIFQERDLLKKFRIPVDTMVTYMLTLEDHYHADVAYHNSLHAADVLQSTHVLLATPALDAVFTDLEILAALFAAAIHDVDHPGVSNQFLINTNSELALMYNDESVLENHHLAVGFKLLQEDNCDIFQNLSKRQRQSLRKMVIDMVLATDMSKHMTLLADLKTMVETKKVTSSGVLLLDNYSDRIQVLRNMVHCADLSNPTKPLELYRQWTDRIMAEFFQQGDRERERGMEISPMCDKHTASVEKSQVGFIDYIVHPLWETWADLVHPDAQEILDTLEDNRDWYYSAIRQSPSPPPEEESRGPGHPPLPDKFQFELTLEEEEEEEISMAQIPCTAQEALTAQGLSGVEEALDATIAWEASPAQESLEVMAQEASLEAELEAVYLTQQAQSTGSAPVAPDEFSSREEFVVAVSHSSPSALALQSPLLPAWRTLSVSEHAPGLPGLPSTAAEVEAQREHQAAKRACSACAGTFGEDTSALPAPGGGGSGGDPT

CC1CN(NCC(O)CO/N=C/c2ccc(OC(F)F)c(OC3CCCC3)c2)CC(C)O1 (stereo not given)
Activity [1]: 1.54%
IC50 [2]: 190 nM
inhibition [3]: 51%
inhibition [4]: 58%
inhibition [5]: 87%

COc1cc([C@@H]2c3cc4c(cc3[C@@H](O[C@@H]3O[C@@H]5CO[C@@H](C)O[C@H]5[C@H](O)[C@H]3O)[C@H]3COC(=O)[C@H]23)OCO4)cc(OC)c1O [ETOPOSIDE]
Activity [6]: Toxic

CC1CN(C(=O)CO/N=C/c2ccc(OC(F)F)c(OC3CCCC3)c2)CC(C)O1 (stereo not given)
Activity [1]: 0.01%
Cmax [7]: 1570 ng/g
Activity (Mus musculus [8]): Non-toxic
Activity [9]: Non-toxic
Kp [10]: 0.429
concentration at 1 h [11]: 303 ng/g
concentration at 3 h [12]: 11.6 ng/mL
concentration at 0.67 h [13]: 1090 ng/mL
AUCt (Brain): 391 ng·h/g
Cmax [14]: 4410 ng/mL
IC50 [2]: 4840 nM
Tmax [15]: 10.2 min
concentration at 5 h [16]: 2.94 ng/g
Tmax [17]: 10.2 min
concentration at 0.17 h [18]: 936 ng/g
concentration at 2 h [19]: 217 ng/mL
inhibition [20]: Active
concentration at 0.67 h [21]: 453 ng/g
concentration at 3 h [22]: 5.45 ng/g
concentration at 0.33 h [23]: 1740 ng/mL
Activity (Mus musculus [24]): Non-toxic
AUC(0-t) [25]: 1220 ng·h/mL
Activity [6]: Non-toxic
concentration at 0.17 h [26]: 2160 ng/mL
concentration at 0.33 h [27]: 790 ng/g
inhibition [3]: 29%
concentration at 2 h [28]: 96 ng/g
concentration at 1 h [29]: 657 ng/mL
inhibition [4]: 32%
half-life [30]: 42 min
inhibition [5]: 74%
concentration at 5 h [31]: 67.2 ng/mL
half-life [32]: 81.6 min

O=C(CO/N=C/c1ccc(OC(F)F)c(OC2CCCC2)c1)N1CCC(O)CC1
Activity [1]: 4.62%
Activity [33]: 0.01%
IC50 [2]: 2630 nM
inhibition [3]: 26%
inhibition [4]: 28%
inhibition [5]: 60%

O=C(CO/N=C/c1ccc(OC(F)F)c(OC2CCCC2)c1)N1CCOCC1
Activity [1]: 2.06%
IC50 [2]: 1120 nM
inhibition [3]: 31%
inhibition [4]: 36%
inhibition [5]: 63%

COc1ccc(/C=N/OCC(O)CN2CC(C)OC(C)C2)cc1OC1CCCC1 (stereo not given)
Activity (Mus musculus [8]): Non-toxic
Activity (Mus musculus [24]): Non-toxic

OC1CCN(CC(O)CO/N=C/c2ccc(OC(F)F)c(OC3CCCC3)c2)CC1 (stereo not given)
Activity [1]: 31.37%
Activity [33]: 3.42%
IC50 [2]: 2540 nM
inhibition [3]: 15%
inhibition [4]: 15%
inhibition [5]: 51%

CC1CN(CC(O)CO/N=C/c2ccc(OC(F)F)c(OC3CCCC3)c2)CC(C)O1 (stereo not given)
Activity [1]: 8.83%
Activity (Mus musculus [8]): Toxic
Activity [33]: 0.01%
IC50 [2]: 190 nM
Activity (Mus musculus [24]): Toxic
inhibition [3]: 68%
inhibition [4]: 68%
inhibition [5]: 84%

COc1ccc(/C=N/OCC(=O)N2CC(C)OC(C)C2)cc1OC1CCCC1 (stereo not given)
Activity [1]: 0.14%
Cmax [7]: 936 ng/g
Activity (Mus musculus [8]): Non-toxic
Activity [9]: Non-toxic
Kp [10]: 0.358
concentration at 1 h [11]: 3.29 ng/g
concentration at 3 h [12]: 2.18 ng/mL
concentration at 0.67 h [13]: 343 ng/mL
AUCt (Brain): 812 ng·h/g
Cmax [14]: 2160 ng/mL
Tmax [15]: 10.2 min
Tmax [17]: 10.2 min
concentration at 0.17 h [18]: 1570 ng/g
concentration at 2 h [19]: 20 ng/mL
inhibition [20]: Active
concentration at 0.67 h [21]: 84.2 ng/g
concentration at 3 h [22]: 1.19 ng/g
concentration at 0.33 h [23]: 1310 ng/mL
Activity (Mus musculus [24]): Non-toxic
AUC(0-t) [25]: 1890 ng·h/mL
Activity [6]: Non-toxic
concentration at 0.17 h [26]: 4410 ng/mL
concentration at 0.33 h [27]: 396 ng/g
concentration at 2 h [28]: 2.21 ng/g
concentration at 1 h [29]: 32.8 ng/mL
half-life [30]: 49.2 min
concentration at 5 h [31]: 10.4 ng/mL
half-life [32]: 32.4 min

OC(CO/N=C/c1ccc(OC(F)F)c(OC2CCCC2)c1)CN1CCOCC1 (stereo not given)
Activity [1]: 0.21%
IC50 [2]: 1490 nM
Activity [6]: Non-toxic
inhibition [3]: 43%
inhibition [4]: 41%
inhibition [5]: 83%

CN1C(=O)CN=C(c2ccccc2)c2cc(Cl)ccc21 [DIAZEPAM]
Activity (Mus musculus [8]): Toxic
Activity (Mus musculus [24]): Toxic

CC1CN(C(=O)CCO/N=C/c2ccc(OC(F)F)c(OC3CCCC3)c2)CC(C)O1 (stereo not given)
Activity [1]: 0.01%
IC50 [2]: 470 nM
Activity [6]: Non-toxic
inhibition [3]: 37%
inhibition [4]: 34%
inhibition [5]: 63%

COc1ccc(C2CNC(=O)C2)cc1OC1CCCC1 (stereo not given) [ROLIPRAM]
Activity (Mus musculus [8]): Toxic
Activity (Mus musculus [24]): Toxic
